The values below come from patent US20230322846A9, “NEUROACTIVE STEROIDS AND THEIR METHODS OF USE” (SAGE THERAPEUTICS, INC., priority 2018, published 2023).

pIC50: −log10 of the molar value. Some results are limits rather than exact numbers.

The target of the experiment is [35S]-TBPS binding, rat brain cortical membranes. The experiment in a line: Steroid inhibition of [35S]-TBPS binding. Conditions: 3 nM [35S]-TBPS, in the presence of 5 mM GABA. An outline of the steps: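 In the presence of […], compounds (DMSO 0.5% final) competed with 3 nM [35S]-TBPS for Sprague-Dawley rat cortical membranes, pH 7.4 phosphate buffer, 90 min, room temperature. Filtration and scintillation counting; specific binding defined by […]; IC50 and maximal inhibition fitted per experiment, averaged as mean ± SEM.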
With `CCOC[C@@]1(O)CC[C@H]2[C@H](CC[C@@H]3[C@@H]2CC[C@]2(C)[C@@H]([C@@H](C)n4ncc(C#N)c4N)CC[C@@H]32)C1` [Example 160, 5-amino-1-((R)-1-((3R,5R,8R,9R,10S,13S,14S,17S)-3-(ethoxymethyl)-3-hydroxy-13-methylhexadecahydro-1H-cyclopenta[a]phenanthren-17-yl)ethyl)-1H-pyrazole-4-carbonitrile], the negative-log IC50 (pIC50) was 5.00 to 6.00.
The value for `CCOC[C@@]1(O)CC[C@H]2[C@H](CC[C@@H]3[C@@H]2CC[C@]2(C)[C@@H]([C@H](C)n4ncc(C#N)c4N)CC[C@@H]32)C1` [Example 161, 5-amino-1-((S)-1-((3R,5R,8R,9R,10S,13S,14S,17S)-3-(ethoxymethyl)-3-hydroxy-13-methylhexadecahydro-1H-cyclopenta[a]phenanthren-17-yl)ethyl)-1H-pyrazole-4-carbonitrile] was 5.00 to 6.00; that for `CCOC[C@@]1(O)CC[C@H]2[C@H](CC[C@@H]3[C@@H]2CC[C@]2(C)[C@@H]([C@@H](C)n4cc(C#N)cn4)CC[C@@H]32)C1` [Example 162, 1-((R)-1-((3R,5R,8R,9R,10S,13S,14S,17S)-3-(ethoxymethyl)-3-hydroxy-13-methylhexadecahydro-1H-cyclopenta[a]phenanthren-17-yl)ethyl)-1H-pyrazole-4-carbonitrile] was 6.00 to 7.00; that for `CCOC[C@@]1(O)CC[C@H]2[C@H](CC[C@@H]3[C@@H]2CC[C@]2(C)[C@@H]([C@H](C)n4cc(C#N)cn4)CC[C@@H]32)C1` [Example 163, 1-((S)-1-((3R,5R,8R,9R,10S,13S,14S,17S)-3-(ethoxymethyl)-3-hydroxy-13-methylhexadecahydro-1H-cyclopenta[a]phenanthren-17-yl)ethyl)-1H-pyrazole-4-carbonitrile] was 5.00 to 6.00.
The value for `C[C@@H]([C@H]1CC[C@H]2[C@@H]3CC[C@@H]4C[C@](C)(O)CC[C@@H]4[C@H]3CC[C@]12C)n1nccn1` [Example 164, (3R,5R,8R,9R,10S,13S,14S,17S)-17-((S)-1-(2H-1,2,3-triazol-2-yl)ethyl)-3,13-dimethylhexadecahydro-1H-cyclopenta[a]phenanthren-3-ol] was 5.00 to 6.00; that for `C[C@H](Nc1cccc(C#N)c1)[C@H]1CC[C@H]2[C@@H]3CC[C@@H]4C[C@](C)(O)CC[C@@H]4[C@H]3CC[C@]12C` [Example 201] was 6.00 to 7.00; that for `C[C@@H](Nc1cccc(C#N)c1)[C@H]1CC[C@H]2[C@@H]3CC[C@@H]4C[C@](C)(O)CC[C@@H]4[C@H]3CC[C@]12C` [Example 202] was > 7.00.
Then `C[C@@H](Nc1cccnc1)[C@H]1CC[C@H]2[C@@H]3CC[C@@H]4C[C@](C)(O)CC[C@@H]4[C@H]3CC[C@]12C` [Example 203], with > 7.00; and `C[C@H](Nc1cccnc1)[C@H]1CC[C@H]2[C@@H]3CC[C@@H]4C[C@](C)(O)CC[C@@H]4[C@H]3CC[C@]12C` [Example 204], with 6.00 to 7.00.
On to `C[C@H](Nc1ccc(C#N)cc1)[C@H]1CC[C@H]2[C@@H]3CC[C@@H]4C[C@](C)(O)CC[C@@H]4[C@H]3CC[C@]12C` [Example 205], for which the pIC50 was 5.00 to 6.00.
The value for `CCOC[C@@]1(O)CC[C@H]2[C@H](CC[C@@H]3[C@@H]2CC[C@]2(C)[C@@H]([C@@H](C)N[C@H](C)c4ccccc4)CC[C@@H]32)C1` [Example 206] was 6.00 to 7.00.
The value for `CCOC[C@@]1(O)CC[C@@]2(C)[C@H](CC[C@@H]3[C@@H]2CC[C@]2(C)[C@@H]([C@@H](C)N[C@H](C)c4ccccc4)CC[C@@H]32)C1` [Example 207] was 5.00 to 6.00; that for `C[C@@H](N[C@H](C)[C@H]1CC[C@H]2[C@@H]3CC[C@@H]4C[C@](C)(O)CC[C@@H]4[C@H]3CC[C@]12C)c1ccccc1` [Example 208] was 6.00 to 7.00.
The value for `C[C@H](N[C@H](C)[C@H]1CC[C@H]2[C@@H]3CC[C@@H]4C[C@](C)(O)CC[C@@H]4[C@H]3CC[C@]12C)c1ccccc1` [Example 209] was 6.00 to 7.00.
Take `C[C@H](N[C@@H](C)[C@H]1CC[C@H]2[C@@H]3CC[C@@H]4C[C@](C)(O)CC[C@@H]4[C@H]3CC[C@]12C)c1ccccc1` [Example 210]: the pIC50 is 5.00 to 6.00.
Consider `CCOC[C@@]1(O)CC[C@@]2(C)[C@H](CC[C@@H]3[C@@H]2CC[C@]2(C)[C@@H]([C@@H](C)N[C@@H](C)c4ccccc4)CC[C@@H]32)C1` [Example 211], for which the negative-log IC50 (pIC50) is 6.00 to 7.00.
Then `CCOC[C@@]1(O)CC[C@@]2(C)[C@H](CC[C@@H]3[C@@H]2CC[C@]2(C)[C@@H]([C@H](C)N[C@@H](C)c4ccccc4)CC[C@@H]32)C1` [Example 212], with 5.00 to 6.00; and `CC[C@H](NCc1ccccc1)[C@H]1CC[C@H]2[C@@H]3CC[C@@H]4C[C@@](O)(COC)CC[C@@H]4[C@H]3CC[C@]12C` [Example 213, (3R,5R,8R,9R,10S,13S,14S,17S)-17-((S)-1-(benzylamino)propyl)-3-(methoxymethyl)-13-methylhexadecahydro-1H-cyclopenta[a]phenanthren-3-ol], with 5.00 to 6.00.
Take `CC[C@@H](NCc1ccccc1)[C@H]1CC[C@H]2[C@@H]3CC[C@@H]4C[C@@](O)(COC)CC[C@@H]4[C@H]3CC[C@]12C` [Example 214, (3R,5R,8R,9R,10S,13S,14S,17S)-17-((R)-1-(benzylamino)propyl)-3-(methoxymethyl)-13-methylhexadecahydro-1H-cyclopenta[a]phenanthren-3-ol]: the pIC50 was 5.00 to 6.00.
Then `Cc1cc(C#N)ccc1N[C@H](C)[C@H]1CC[C@H]2[C@@H]3CC[C@@H]4C[C@](C)(O)CC[C@@H]4[C@H]3CC[C@]12C` [Example 250], with > 7.00; and `Cc1cc(C#N)ccc1N[C@@H](C)[C@H]1CC[C@H]2[C@@H]3CC[C@@H]4C[C@](C)(O)CC[C@@H]4[C@H]3CC[C@]12C` [Example 251], with 6.00 to 7.00.
In the case of `COC[C@@]1(O)CC[C@H]2[C@H](CC[C@@H]3[C@@H]2CC[C@]2(C)[C@@H]([C@@H](C)Nc4ccc(C#N)cc4C)CC[C@@H]32)C1` [Example 252], the pIC50 is > 7.00.
As for `COC[C@@]1(O)CC[C@H]2[C@H](CC[C@@H]3[C@@H]2CC[C@]2(C)[C@@H]([C@H](C)Nc4ccc(C#N)cc4C)CC[C@@H]32)C1` [Example 253], the negative logarithm of the IC50 (pIC50) is 5.00 to 6.00.
On to `COC[C@@]1(O)CC[C@H]2[C@H](CC[C@@H]3[C@@H]2CC[C@]2(C)[C@@H]([C@@H](C)Nc4cccc(C#N)c4)CC[C@@H]32)C1` [Example 254], for which the pIC50 was > 7.00.
The value for `COC[C@@]1(O)CC[C@H]2[C@H](CC[C@@H]3[C@@H]2CC[C@]2(C)[C@@H]([C@H](C)Nc4cccc(C#N)c4)CC[C@@H]32)C1` [Example 255] was 5.00 to 6.00.
Then `COC[C@@]1(O)CC[C@H]2[C@H](CC[C@@H]3[C@@H]2CC[C@]2(C)[C@@H]([C@@H](C)Nc4ccc(C#N)cc4)CC[C@@H]32)C1` [Example 256], with > 7.00.
In the case of `COC[C@@]1(O)CC[C@H]2[C@H](CC[C@@H]3[C@@H]2CC[C@]2(C)[C@@H]([C@H](C)Nc4ccc(C#N)cc4)CC[C@@H]32)C1` [Example 257], the pIC50 was 6.00 to 7.00.
Then `COC[C@@]1(O)CC[C@H]2[C@H](CC[C@@H]3[C@@H]2CC[C@]2(C)[C@@H]([C@@H](C)Nc4ccc(C#N)nc4)CC[C@@H]32)C1` [Example 258], with 6.00 to 7.00.
Then `CCOC[C@@]1(O)CC[C@H]2[C@H](CC[C@@H]3[C@@H]2CC[C@]2(C)[C@@H]([C@@H](C)Nc4cccc(N5CCCC5=O)c4C)CC[C@@H]32)C1` [Example 259], with > 7.00; and `CCOC[C@@]1(O)CC[C@H]2[C@H](CC[C@@H]3[C@@H]2CC[C@]2(C)[C@@H]([C@@H](C)Nc4ccc(C#N)cc4C)CC[C@@H]32)C1` [Example 260], with > 7.00; and `CCOC[C@@]1(O)CC[C@H]2[C@H](CC[C@@H]3[C@@H]2CC[C@]2(C)[C@@H]([C@@H](C)Nc4ccc(C#N)nc4)CC[C@@H]32)C1` [Example 261], with 6.00 to 7.00.
Regarding `CCOC[C@@]1(O)CC[C@H]2[C@H](CC[C@@H]3[C@@H]2CC[C@]2(C)[C@@H]([C@@H](C)Nc4cccnc4F)CC[C@@H]32)C1` [Example 262], the negative-log IC50 (pIC50) is > 7.00.
The value for `CCOC[C@@]1(O)CC[C@H]2[C@H](CC[C@@H]3[C@@H]2CC[C@]2(C)[C@@H]([C@@H](C)Nc4ccc(-n5ccc(C#N)n5)nc4)CC[C@@H]32)C1` [Example 264] was 6.00 to 7.00; that for `CCOC[C@@]1(O)CC[C@H]2[C@H](CC[C@@H]3[C@@H]2CC[C@]2(C)[C@@H]([C@H](C)Cn4nccn4)CC[C@@H]32)C1` [Example 265, (3R,5R,8R,9R,10S,13S,14S,17R)-17-((S)-1-(2H-1,2,3-triazol-2-yl)propan-2-yl)-3-(ethoxymethyl)-13-methylhexadecahydro-1H-cyclopenta[a]phenanthren-3-ol] was 6.00 to 7.00; that for `CCOC[C@@]1(O)CC[C@H]2[C@H](CC[C@@H]3[C@@H]2CC[C@]2(C)[C@@H]([C@@H](C)Cn4nccn4)CC[C@@H]32)C1` [Example 266, (3R,5R,8R,9R,10S,13S,14S,17R)-17-((R)-1-(2H-1,2,3-triazol-2-yl)propan-2-yl)-3-(ethoxymethyl)-13-methylhexadecahydro-1H-cyclopenta[a]phenanthren-3-ol] was 6.00 to 7.00.

Usually pIC50 stands for −log10 of the IC50, conventionally taken in molar units.
